Assay [1] deals with Mycobacterium tuberculosis. Put plainly: Antimycobacterial activity against nonreplicating Mycobacterium tuberculosis H37Rv under hypoxic condition by fluorescence based assay. The assay is classed as functional.
For assay [2], the target named is T1, ATP-dependent Clp protease ATP-binding subunit ClpC1 (Mycobacterium tuberculosis, UniProt P9WPC9). The assay can be described thus: Binding affinity to recombinant full length Mycobacterium tuberculosis H37Rv ClpC1 (1 to 842 residues) expressed in Escherichia coli BL21 cells by surface plasmon resonance analysis. On the technique in general: In SPR one partner is held on a chip, and binding of the other changes the refractive index at the surface.
T1 sequence (P9WPC9 whole entry, the tested form may be a part): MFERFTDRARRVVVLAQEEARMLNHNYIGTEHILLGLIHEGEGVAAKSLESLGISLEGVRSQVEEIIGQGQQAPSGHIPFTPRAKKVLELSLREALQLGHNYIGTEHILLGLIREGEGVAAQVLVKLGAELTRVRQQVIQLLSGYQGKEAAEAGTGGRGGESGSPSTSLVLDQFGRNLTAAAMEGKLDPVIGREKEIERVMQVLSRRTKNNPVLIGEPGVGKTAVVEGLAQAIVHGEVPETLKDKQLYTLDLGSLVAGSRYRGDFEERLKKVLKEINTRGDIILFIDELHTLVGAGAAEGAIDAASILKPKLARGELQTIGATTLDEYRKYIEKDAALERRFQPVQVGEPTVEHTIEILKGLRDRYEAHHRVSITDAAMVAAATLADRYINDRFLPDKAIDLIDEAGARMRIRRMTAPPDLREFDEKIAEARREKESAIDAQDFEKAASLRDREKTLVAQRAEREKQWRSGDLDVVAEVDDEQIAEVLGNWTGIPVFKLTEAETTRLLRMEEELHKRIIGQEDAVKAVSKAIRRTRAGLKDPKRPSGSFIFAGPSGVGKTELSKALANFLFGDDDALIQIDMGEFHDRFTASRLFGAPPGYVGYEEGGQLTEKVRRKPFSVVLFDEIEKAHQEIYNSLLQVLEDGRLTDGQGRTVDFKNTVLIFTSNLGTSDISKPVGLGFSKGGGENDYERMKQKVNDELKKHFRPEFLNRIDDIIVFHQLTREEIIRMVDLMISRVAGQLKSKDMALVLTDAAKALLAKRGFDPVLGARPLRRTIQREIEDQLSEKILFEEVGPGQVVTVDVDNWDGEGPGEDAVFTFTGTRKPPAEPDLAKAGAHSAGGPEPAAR

Assay [3] addresses T1, ATP-dependent Clp protease ATP-binding subunit ClpC1. The assay can be described thus: Binding affinity to recombinant Mycobacterium tuberculosis H37Rv N-terminal His6-tagged ClpC1 (1 to 145 residues) expressed in Escherichia coli BL21 cells by surface plasmon resonance analysis.
Assay [4] relates to Mycobacterium tuberculosis. The assay can be described thus: Antimycobacterial activity against Mycobacterium tuberculosis H37Rv assessed as reduction in microbial growth after 7 days by alamar blue assay. The assay is classed as functional. The settings on record: 168 h. For orientation: Alamar Blue is a resazurin reagent that responds to reducing activity.
Assay [5] has as its system Mycobacteroides abscessus. Put plainly: Antimycobacterial activity against Mycobacterium abscessus ATCC 19977 assessed as reduction in microbial growth after 7 days by alamar blue assay. The assay is classed as functional. The settings on record: ATCC 19977, 168 h.
The subject of a further assay is Vero. The assay can be described thus: cells. The settings on record: Chlorocebus sabaeus.

From ChEMBL document CHEMBL4613246, “Antimycobacterial Rufomycin Analogues from Streptomyces atratus Strain MJM3502” (J Nat Prod, 2020) come the findings set out here.

SMILES strings stand for the structures. In brackets after ≈: the same amount, converted by molar mass. Starred links: 1 amine or outer side, 2 acyl side, 3 side chain; linkers in the order of their positions; H or OH if unused. Non-standard residues stand in square brackets, D forms with d. Residues, ends and D or L forms follow the SMILES beside them. Trp(1-CMe2(2S-oxiranyl)) = CC(C)([C@H]1CO1)n1cc(C[C@H](N)C(=O)O)c2ccccc21; Trp(1-(1,1-Me2-allyl)) = C=CC(C)(C)n1cc(C[C@H](N)C(=O)O)c2ccccc21; X3 = CC(C)([C@H](O)CCl)n1cc(C[C@H](N[*:1])C(=O)[*:2])c2ccccc21; Tyr(3-NO2) = N[C@@H](Cc1ccc(O)c([N+](=O)[O-])c1)C(=O)O; NMeLeu(5-OH,4R) = CN[C@@H](C[C@@H](C)CO)C(=O)O; X1 = COC(OC)C(C)C[C@@H](C(=O)[*:2])N(C)[*:1]; X2 = C[C@H](CO)C[C@@H](C(=O)[*:2])N(C)[*:1]; Gly(E-crotyl) = C/C=C/C[C@H](N)C(=O)O; NMeL = CN[C@@H](CC(C)C)C(=O)O

Description for Vero: Cytotoxicity against African green monkey Vero cells

Compound `C/C=C/C[C@@H]1NC(=O)[C@H](CC(C)C)NC(=O)[C@H](CC(C)C)N(C)C(=O)[C@H](C)NC(=O)[C@H](Cc2ccc(O)c([N+](=O)[O-])c2)NC(=O)[C@H](CC(C)C)N(C)C(=O)[C@H](Cc2cn(C(C)(C)[C@H](O)CCl)c3ccccc23)NC1=O` (cyclo(A[NMeL]L[Gly(E-crotyl)][X3][NMeL][Tyr(3-NO2)])) yielded an MIC in assay [1] of 4 to 10 µM (≈ 4.26 to 10.6 µg/mL). Besides, the Kd in assay [2] and in assay [3] was 1500 nM each time.

On to `C/C=C/C[C@@H]1NC(=O)[C@H](CC(C)C)NC(=O)[C@H](CC(C)C)N(C)C(=O)[C@H](C)NC(=O)[C@H](Cc2ccc(O)c([N+](=O)[O-])c2)NC(=O)[C@H](CC(C)C)NC(=O)[C@H](Cc2cn(C(C)(C)[C@H]3CO3)c3ccccc23)NC1=O` (cyclo(A[NMeL]L[Gly(E-crotyl)][Trp(1-CMe2(2S-oxiranyl))]L[Tyr(3-NO2)])), for which the MIC in assay [1] was 4 to 10 µM (≈ 4.06 to 10.1 µg/mL); in assay [4], 0.57 µM. Also, the Kd in assay [2] is 1500 nM.

As for `C=CC(C)(C)n1cc(C[C@@H]2NC(=O)[C@H](C/C=C/C)NC(=O)[C@H](CC(C)C)NC(=O)[C@H](C[C@H](C)CO)N(C)C(=O)[C@H](C)NC(=O)[C@H](Cc3ccc(O)c([N+](=O)[O-])c3)NC(=O)[C@H](CC(C)C)N(C)C2=O)c2ccccc21` (cyclo(A[X2]L[Gly(E-crotyl)][Trp(1-(1,1-Me2-allyl))][NMeL][Tyr(3-NO2)])), the values for the minimum inhibitory concentration (MIC) in assay [1] and in assay [4] were 4 to 10 µM (≈ 4.11 to 10.3 µg/mL) and 0.84 µM, respectively. Further, the Kd in assay [2] and in assay [3] was 1100 nM each time.

In the case of `C/C=C/C[C@@H]1NC(=O)[C@H](CC(C)C)N2C(=O)[C@H](C[C@](C)(O)[C@H]2O)N(C)C(=O)[C@H](C)NC(=O)[C@H](Cc2ccc(O)c([N+](=O)[O-])c2)NC(=O)[C@H](CC(C)C)N(C)C(=O)[C@H](Cc2cn(C(C)(C)[C@H]3CO3)c3ccccc23)NC1=O`, the MIC in assay [1] was 4 to 10 µM (≈ 4.23 to 10.6 µg/mL); in assay [4], 0.03 µM. For the same compound, the Kd worked out at 50 nM in assay [2] and 60 nM in assay [3].

Turning to `C/C=C/C[C@@H]1NC(=O)[C@H](CC(C)C)NC(=O)[C@H](C[C@H](C)CO)N(C)C(=O)[C@H](C)NC(=O)[C@H](Cc2ccc(O)c([N+](=O)[O-])c2)NC(=O)[C@H](CC(C)C)N(C)C(=O)[C@H](Cc2cn(C(C)(C)[C@H]3CO3)c3ccccc23)NC1=O` (cyclo(A[X2]L[Gly(E-crotyl)][Trp(1-CMe2(2S-oxiranyl))][NMeL][Tyr(3-NO2)])), the MIC is 4 to 10 µM (≈ 4.18 to 10.4 µg/mL) in assay [1] and 0.25 µM in assay [4]. Also, the Kd is 500 nM in assay [2] and 620 nM in assay [3].

For the compound `C/C=C/C[C@@H]1NC(=O)[C@H](CC(C)C)NC(=O)[C@H](CC(C)C(OC)OC)N(C)C(=O)[C@H](C)NC(=O)[C@H](Cc2ccc(O)c([N+](=O)[O-])c2)NC(=O)[C@H](CC(C)C)N(C)C(=O)[C@H](Cc2cn(C(C)(C)[C@H]3CO3)c3ccccc23)NC1=O` (stereo partly drawn) (cyclo(A[X1]L[Gly(E-crotyl)][Trp(1-CMe2(2S-oxiranyl))][NMeL][Tyr(3-NO2)])), the MIC in assay [1] was 4 to 10 µM (≈ 4.35 to 10.9 µg/mL); in assay [4] it was 0.11 µM. Further, the equilibrium dissociation constant (Kd) in assay [2] is 450 nM; in assay [3], 310 nM.

Take `C=CC(C)(C)n1cc(C[C@@H]2NC(=O)[C@H](C/C=C/C)NC(=O)[C@H](CC(C)C)NC(=O)[C@H](CC(C)C)N(C)C(=O)[C@H](C)NC(=O)[C@H](Cc3ccc(O)c([N+](=O)[O-])c3)NC(=O)[C@H](CC(C)C)N(C)C2=O)c2ccccc21` (cyclo(A[NMeL]L[Gly(E-crotyl)][Trp(1-(1,1-Me2-allyl))][NMeL][Tyr(3-NO2)])): the MIC was 4 to 10 µM (≈ 4.05 to 10.1 µg/mL) in assay [1] and 1.7 µM in assay [4]. The Kd came out at 3200 nM in assay [2] and 1200 nM in assay [3].

As for `C=CC(C)(C)n1cc(C[C@@H]2NC(=O)[C@H](CC(C)C)N(C)C2=O)c2ccccc21`, the MIC in assay [1] is 4 to 10 µM (≈ 1.53 to 3.82 µg/mL); in assay [4] it was more than 10 µM.

Take `C/C=C/C[C@@H]1NC(=O)[C@H](CC(C)C)NC(=O)[C@H](CC(C)C)N(C)C(=O)[C@H](C)NC(=O)[C@H](Cc2ccc(O)c([N+](=O)[O-])c2)NC(=O)[C@H](CC(C)C)N(C)C(=O)[C@H](Cc2cn(C(C)(C)[C@H]3CO3)c3ccccc23)NC1=O` (cyclo(A[NMeL]L[Gly(E-crotyl)][Trp(1-CMe2(2S-oxiranyl))][NMeL][Tyr(3-NO2)])): the MIC was 4 to 10 µM (≈ 4.11 to 10.3 µg/mL) in assay [1] and 0.2 µM in assay [4]. Further, the Kd amounted to 540 nM in assay [2] and 1700 nM in assay [3].

Take `NNC(=O)c1ccncc1` [ISONIAZID]: the MIC was more than 8 µM in assay [5] and 0.46 µM in assay [4]. In the assay with Vero, the IC50 is more than 50000 nM.

Consider `CO[C@H]1/C=C/O[C@@]2(C)Oc3c(C)c(O)c4c(O)c(c(/C=N/N5CCN(C)CC5)c(O)c4c3C2=O)NC(=O)/C(C)=C\C=C\[C@H](C)[C@H](O)[C@@H](C)[C@@H](O)[C@@H](C)[C@H](OC(C)=O)[C@@H]1C` [RIFAMPIN], for which the figures for the MIC in assay [5] and in assay [4] were more than 4 µM and 0.03 µM, respectively. This compound had an IC50 in the assay with Vero of more than 122000 nM.

`C/C=C/C[C@@H]1NC(=O)[C@H](CC(C)C)NC(=O)[C@H](C[C@@H](C)CO)N(C)C(=O)[C@H](C)NC(=O)[C@H](Cc2ccc(O)c([N+](=O)[O-])c2)NC(=O)[C@H](CC(C)C)N(C)C(=O)[C@H](Cc2cn(C(C)(C)[C@H]3CO3)c3ccccc23)NC1=O` (cyclo(A[NMeLeu(5-OH,4R)]L[Gly(E-crotyl)][Trp(1-CMe2(2S-oxiranyl))][NMeL][Tyr(3-NO2)])): the MIC in assay [1] is 4 to 10 µM (≈ 4.18 to 10.4 µg/mL); in assay [4] it was 0.44 µM. Besides, the Kd was found to be 1300 nM in assay [2] and 1600 nM in assay [3].

`C=CC(C)(C)n1cc(C[C@@H]2NC(=O)[C@H](C/C=C/C)NC(=O)[C@H](CC(C)C)NC(=O)[C@H](CC(C)C)N(C)C(=O)[C@H](C)NC(=O)[C@H](Cc3ccc(O)cc3)NC(=O)[C@H](CC(C)C)N(C)C2=O)c2ccccc21` (HELM PEPTIDE1{A.[meL].L.[C/C=C/C[C@H](N[*:1])C(=O)[*:2]].[C=CC(C)(C)n1cc(C[C@H](N[*:1])C(=O)[*:2])c2ccccc21].[meL].Y}$PEPTIDE1,PEPTIDE1,1:R1-7:R2$$$V2.0): the MIC was 4 to 10 µM (≈ 3.87 to 9.67 µg/mL) in assay [1] and more than 10 µM in assay [4]. Also, the values for the Kd in assay [2] and in assay [3] were 5700 nM and 1200 nM, respectively.

As to `C/C=C/C[C@@H]1NC(=O)[C@H](CC(C)C)N2C(=O)[C@H](CC(C)[C@H]2O)N(C)C(=O)[C@H](C)NC(=O)[C@H](Cc2ccc(O)c([N+](=O)[O-])c2)NC(=O)[C@H](CC(C)C)N(C)C(=O)[C@H](Cc2cn(C(C)(C)[C@H]3CO3)c3ccccc23)NC1=O` (stereo not given in full), the values for the MIC in assay [5], in assay [1] and in assay [4] were 0.29 µM, 4 to 10 µM (≈ 4.17 to 10.4 µg/mL) and 0.02 µM, respectively. The Kd in assay [2] and in assay [3] was 60 nM throughout.

Take `C/C=C/C[C@@H]1NC(=O)[C@H](CC(C)C)N2C(=O)[C@H](C[C@@H](C)[C@H]2O)N(C)C(=O)[C@H](C)NC(=O)[C@H](Cc2ccc(O)c([N+](=O)[O-])c2)NC(=O)[C@H](CC(C)C)N(C)C(=O)[C@H](Cc2cn(C(C)(C)[C@H](O)CO)c3ccccc23)NC1=O`: the figures for the MIC in assay [1] and in assay [4] were 4 to 10 µM (≈ 4.24 to 10.6 µg/mL) and 0.1 µM, respectively. The Kd in assay [2] is 280 nM; in assay [3], 300 nM.

As a reminder, the MIC is the lowest concentration that inhibits growth of the organism. One may read the Kd as the free concentration of one partner at which half of the binding sites on the other are occupied at equilibrium, for simple one-to-one binding. What is called IC50 is the concentration needed to halve the response being measured. Lower therefore signals greater potency in that assay.
